Assays:
[1] = target: T1, GABA-A receptor; alpha-3/beta-3/gamma-2 (Homo sapiens) (UniProt P18507+P28472+P34903); assay: (§1) Maximum percent change compared to GABA EC20 against GABA-A alpha-3-beta-3-gamma-2 receptor; assay type: functional
[2] = target: T2, GABA-A receptor; alpha-1/beta-3/gamma-2 (Homo sapiens) (UniProt P14867+P18507+P28472); assay: (§2) Maximum percent change compared to GABA EC20 against GABA-A alpha-1-beta-3-gamma-2 receptor; assay type: protein-complex assay
[3] = target: T2, GABA-A receptor; alpha-1/beta-3/gamma-2 (Homo sapiens); assay: as §2; assay type: functional
[4] = target: T3, GABA-A receptor; alpha-2/beta-3/gamma-2 (Homo sapiens) (UniProt P18507+P28472+P47869); assay: Maximum percent change compared to GABA EC20 against GABA-A alpha-2-beta-3-gamma-2 receptor; assay type: functional
[5] = target: T4, GABA-A receptor; alpha-5/beta-3/gamma-2 (Homo sapiens) (UniProt P18507+P28472+P31644); assay: Maximum percent change compared to GABA EC20 against GABA-A alpha-5-beta-3-gamma-2 receptor; assay type: functional
[6] = target: T1, GABA-A receptor; alpha-3/beta-3/gamma-2 (Homo sapiens); assay: as §1; assay type: functional; remark: listed apart in the source
[7] = target: T5, GABA-A receptor; alpha-3/beta-3/gamma-2 (Homo sapiens, UniProt P18507+P28472+P34903); assay: Binding affinity for human GABA-A receptor alpha-3-beta-3-gamma-2 subunits in L(tk-) cells; assay type: cell-based
T5 sequence (P18507 whole entry): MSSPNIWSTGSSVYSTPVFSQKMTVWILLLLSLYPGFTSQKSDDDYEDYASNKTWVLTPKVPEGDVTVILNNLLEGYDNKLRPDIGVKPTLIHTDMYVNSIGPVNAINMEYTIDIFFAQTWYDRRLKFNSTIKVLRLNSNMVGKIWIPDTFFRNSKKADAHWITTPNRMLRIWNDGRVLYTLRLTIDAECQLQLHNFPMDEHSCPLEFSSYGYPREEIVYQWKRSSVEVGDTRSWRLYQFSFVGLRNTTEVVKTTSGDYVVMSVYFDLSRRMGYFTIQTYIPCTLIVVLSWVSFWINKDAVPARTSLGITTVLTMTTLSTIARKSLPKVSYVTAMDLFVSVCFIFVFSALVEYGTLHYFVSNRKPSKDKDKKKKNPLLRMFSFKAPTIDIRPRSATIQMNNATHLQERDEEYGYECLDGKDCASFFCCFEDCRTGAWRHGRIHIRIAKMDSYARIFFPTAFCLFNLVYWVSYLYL
T5 sequence (P28472 whole entry): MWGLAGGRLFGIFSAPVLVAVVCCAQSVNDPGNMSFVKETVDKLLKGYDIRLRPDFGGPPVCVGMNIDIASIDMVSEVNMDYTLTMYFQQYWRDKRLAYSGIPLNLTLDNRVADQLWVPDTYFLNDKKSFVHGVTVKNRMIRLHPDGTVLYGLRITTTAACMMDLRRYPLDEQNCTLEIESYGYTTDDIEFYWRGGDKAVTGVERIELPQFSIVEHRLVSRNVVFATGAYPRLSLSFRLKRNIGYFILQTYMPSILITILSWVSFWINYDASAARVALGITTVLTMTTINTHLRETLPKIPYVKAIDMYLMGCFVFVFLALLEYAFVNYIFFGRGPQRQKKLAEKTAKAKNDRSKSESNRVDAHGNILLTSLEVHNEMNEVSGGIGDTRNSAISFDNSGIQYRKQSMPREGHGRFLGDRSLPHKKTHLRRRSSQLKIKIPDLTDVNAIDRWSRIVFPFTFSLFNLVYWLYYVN
T5 sequence (P34903 whole entry): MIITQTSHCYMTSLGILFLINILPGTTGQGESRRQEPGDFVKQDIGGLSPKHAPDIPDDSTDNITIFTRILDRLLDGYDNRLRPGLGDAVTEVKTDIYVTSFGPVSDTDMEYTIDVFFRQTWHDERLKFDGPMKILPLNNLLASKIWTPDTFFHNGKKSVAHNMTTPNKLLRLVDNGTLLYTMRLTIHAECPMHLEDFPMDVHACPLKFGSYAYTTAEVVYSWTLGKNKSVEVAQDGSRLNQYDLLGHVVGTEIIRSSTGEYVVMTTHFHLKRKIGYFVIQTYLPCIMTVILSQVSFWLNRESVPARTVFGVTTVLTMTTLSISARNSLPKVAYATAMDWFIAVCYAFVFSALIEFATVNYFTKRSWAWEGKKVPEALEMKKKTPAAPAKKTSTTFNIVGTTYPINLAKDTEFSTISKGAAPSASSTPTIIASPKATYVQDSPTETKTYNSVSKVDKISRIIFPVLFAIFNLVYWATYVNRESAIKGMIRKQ

[8] = target: T6, GABA-A receptor; alpha-5/beta-3/gamma-2 (Homo sapiens, UniProt P18507+P28472+P31644); assay: Binding affinity for human GABA-A receptor alpha-5-beta-3-gamma-2 subunits in L(tk-) cells; assay type: cell-based
T6 sequence (P18507 whole entry): T5 sequence (P18507 whole entry)
T6 sequence (P28472 whole entry): T5 sequence (P28472 whole entry)
T6 sequence (P31644 whole entry): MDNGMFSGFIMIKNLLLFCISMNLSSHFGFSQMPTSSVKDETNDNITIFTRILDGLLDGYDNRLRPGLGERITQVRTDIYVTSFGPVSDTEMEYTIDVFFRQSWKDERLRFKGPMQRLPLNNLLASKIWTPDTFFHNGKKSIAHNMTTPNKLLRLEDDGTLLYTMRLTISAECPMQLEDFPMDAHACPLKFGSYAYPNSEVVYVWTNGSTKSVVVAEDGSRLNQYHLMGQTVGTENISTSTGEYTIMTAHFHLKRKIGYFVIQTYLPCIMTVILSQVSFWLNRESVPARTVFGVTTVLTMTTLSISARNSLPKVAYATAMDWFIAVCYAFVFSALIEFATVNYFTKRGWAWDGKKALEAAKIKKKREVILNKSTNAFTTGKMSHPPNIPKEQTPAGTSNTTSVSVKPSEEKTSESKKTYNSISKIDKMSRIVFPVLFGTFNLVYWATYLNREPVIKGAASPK

[9] = target: T7, GABA-A receptor; alpha-2/beta-3/gamma-2 (Homo sapiens, UniProt P18507+P28472+P47869); assay: Binding affinity for human GABA-A receptor alpha-2-beta-3-gamma-2 subunits in L(tk-) cells; assay type: cell-based
T7 sequence (P18507 whole entry): T5 sequence (P18507 whole entry)
T7 sequence (P28472 whole entry): T5 sequence (P28472 whole entry)
T7 sequence (P47869 whole entry): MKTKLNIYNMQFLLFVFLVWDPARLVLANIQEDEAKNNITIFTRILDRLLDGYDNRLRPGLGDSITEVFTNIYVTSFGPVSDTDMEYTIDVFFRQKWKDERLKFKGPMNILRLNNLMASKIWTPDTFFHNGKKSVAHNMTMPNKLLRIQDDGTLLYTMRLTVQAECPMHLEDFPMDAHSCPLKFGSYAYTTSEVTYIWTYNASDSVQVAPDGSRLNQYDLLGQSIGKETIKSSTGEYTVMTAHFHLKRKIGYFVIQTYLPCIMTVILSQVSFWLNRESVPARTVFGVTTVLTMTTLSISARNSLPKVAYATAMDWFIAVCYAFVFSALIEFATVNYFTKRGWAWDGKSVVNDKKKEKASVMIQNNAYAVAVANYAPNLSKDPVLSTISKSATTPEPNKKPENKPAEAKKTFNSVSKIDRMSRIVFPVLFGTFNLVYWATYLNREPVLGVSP

[10] = target: T8, GABA-A receptor; alpha-1/beta-3/gamma-2 (Homo sapiens, UniProt P14867+P18507+P28472); assay: Binding affinity for human GABA-A receptor alpha-1-beta-3-gamma-2 subunits in L(tk-) cells
T8 sequence (P14867 whole entry): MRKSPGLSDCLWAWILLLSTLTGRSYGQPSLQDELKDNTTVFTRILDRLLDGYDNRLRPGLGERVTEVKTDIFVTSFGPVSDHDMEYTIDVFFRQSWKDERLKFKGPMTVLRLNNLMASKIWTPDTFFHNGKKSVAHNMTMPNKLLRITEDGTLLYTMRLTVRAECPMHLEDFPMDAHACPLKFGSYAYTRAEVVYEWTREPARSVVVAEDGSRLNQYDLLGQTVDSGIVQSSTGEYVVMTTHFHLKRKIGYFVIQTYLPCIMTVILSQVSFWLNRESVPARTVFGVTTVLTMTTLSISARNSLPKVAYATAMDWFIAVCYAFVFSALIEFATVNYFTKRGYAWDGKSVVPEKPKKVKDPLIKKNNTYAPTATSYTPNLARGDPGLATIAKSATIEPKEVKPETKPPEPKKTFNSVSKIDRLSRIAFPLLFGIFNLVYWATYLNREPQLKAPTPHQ
T8 sequence (P18507 whole entry): T5 sequence (P18507 whole entry)
T8 sequence (P28472 whole entry): T5 sequence (P28472 whole entry)

[11] = target: T1, GABA-A receptor; alpha-3/beta-3/gamma-2 (Homo sapiens); assay: Partial agonistic activity against GABA-A receptor alpha-3-beta-3-gamma-2 subunits; assay type: functional
[12] = target: T3, GABA-A receptor; alpha-2/beta-3/gamma-2 (Homo sapiens); assay: Partial agonistic activity against GABA-A receptor alpha-2-beta-3-gamma-2 subunits; assay type: functional
[13] = target: T2, GABA-A receptor; alpha-1/beta-3/gamma-2 (Homo sapiens); assay: Partial agonistic activity against GABA-A receptor alpha-1-beta-3-gamma-2 subunits; assay type: functional
[14] = target: T4, GABA-A receptor; alpha-5/beta-3/gamma-2 (Homo sapiens); assay: Efficacy at human GABA-A receptor alpha-5-beta-3-gamma-2 subunits
[15] = target: T1, GABA-A receptor; alpha-3/beta-3/gamma-2 (Homo sapiens); assay: Agonistic activity against GABA-A receptor alpha-3-beta-3-gamma-2; assay type: functional
[16] = target: T1, GABA-A receptor; alpha-3/beta-3/gamma-2 (Homo sapiens); assay: Inverse agonistic activity against GABA-A receptor alpha-3-beta-3-gamma-2 subunits; assay type: functional
[17] = target: T2, GABA-A receptor; alpha-1/beta-3/gamma-2 (Homo sapiens); assay: Inverse agonistic activity against GABA-A receptor alpha-1-beta-3-gamma-2 subunits; assay type: functional

Row | Compound | Efficacy [6] | Ki [7] | Ki [8] | Ki [9] | Ki [10] | other results
1 | c1ccc(-c2nnc3c4ccccc4c(OCc4ccccn4)nn23)cc1 | -16% | 0.71 nM | 0.33 nM | 1.7 nM | 2.7 nM | Efficacy [1]: -16%; Efficacy [2]: -7%; Efficacy [3]: -7%; Efficacy [4]: -5%; Efficacy [5]: -5%
2 | Cc1cccc2c(OCc3ccccn3)nn3c(-c4ccccc4)nnc3c12 | 19% | 0.37 nM | 0.84 nM | 1.8 nM | 1.2 nM | Efficacy [3]: 0%
3 | Cc1cccc(COc2nn3c(-c4ccccc4)nnc3c3ccccc23)n1 |  | 1.2 nM | 2.5 nM | 8 nM | 8.4 nM | Activity [11]: -8%; Activity [12]: -4%; Activity [13]: 1%; Efficacy [14]: 11%
4 | Cc1cccc2c1c(OCc1ccccn1)nn1c(-c3ccccc3)nnc21 | 39% | 35 nM | 20 nM | 44 nM | 56 nM | Efficacy [3]: 43%
5 | Cc1nnc2c3ccccc3c(OCc3ccccn3)nn12 |  | 81 nM | 29 nM | 470 nM | 900 nM | Activity [15]: -38%
6 | c1ccc(-c2nnc3c4c(c(OCc5ccccn5)nn23)CCCCC4)cc1 | 30% | 17 nM | 2.7 nM | 17 nM | 41 nM | Efficacy [3]: 30%; Efficacy [4]: 27%; Efficacy [5]: 37%
7 | N#Cc1cccc(COc2nn3c(-c4ccccc4)nnc3c3ccccc23)c1 |  | 170 nM | 130 nM | 400 nM | 730 nM | 
8 | c1ccc(COc2nn3c(C4CC4)nnc3c3ccccc23)nc1 |  | 2.6 nM | 0.74 nM | 5.8 nM | 16 nM | Activity [16]: -26%; Activity [17]: -20%
9 | c1ccc(-c2nnc3c4c(c(OCc5ccccn5)nn23)CCCC4)cc1 | 17% | 0.85 nM | 0.38 nM | 1.9 nM | 4.3 nM | Efficacy [3]: 16%; Efficacy [4]: 18%; Efficacy [5]: 6%
10 | COc1ccccc1COc1nn2c(-c3ccccc3)nnc2c2ccccc12 |  | > 1000 nM | > 1000 nM | > 1000 nM | > 1000 nM | 
11 | c1ccc(-c2nnc3c4ccccc4c(OCc4cnccn4)nn23)cc1 |  | 0.71 nM | 0.36 nM | 1.6 nM | 2 nM | 
12 | CN(Cc1ccccc1)c1nn2c(-c3ccccc3)nnc2c2ccccc12 |  | > 1000 nM | 240 nM | > 1000 nM | 500 nM | 
13 | C=Cc1nnc2c3ccccc3c(OCc3ccccn3)nn12 | -31% | 11 nM | 3.2 nM | 28 nM | 49 nM | 
14 | c1ccc(-c2nnc3c4ccccc4c(OCc4ccoc4)nn23)cc1 |  | 21 nM | 13 nM | 38 nM | 26 nM | 
15 | CC(C)c1nnc2c3ccccc3c(OCc3ccccn3)nn12 |  | 39 nM | 8 nM | 56 nM | 160 nM | Activity [16]: -21%
16 | Cc1ccnc(COc2nn3c(-c4ccccc4)nnc3c3ccccc23)c1 |  | 10 nM | 3.7 nM | 11 nM | 18 nM | 
17 | Cc1ccc2c(c1)c(OCc1ccccn1)nn1c(-c3ccccc3)nnc21 | 27% | 1.2 nM | 0.64 nM | 2.2 nM | 2.2 nM | Efficacy [3]: 65%
18 | CC(Oc1nn2c(-c3ccccc3)nnc2c2ccccc12)c1ccccn1 (centres undefined) | 25% | 320 nM | 140 nM | 520 nM | 960 nM | Efficacy [2]: 36%
19 | c1ccc(CCOc2nn3c(-c4ccccc4)nnc3c3ccccc23)cc1 |  | 720 nM | > 1000 nM | > 1000 nM | 380 nM | 
20 | c1ccc(COc2nn3c(C4CCC4)nnc3c3ccccc23)nc1 |  | 23 nM | 5.1 nM | 24 nM | 56 nM | 
21 | CCc1nnc2c3ccccc3c(OCc3ccccn3)nn12 |  | 53 nM | 16 nM | 130 nM | 250 nM | 
22 | Clc1ccc(COc2nn3c(-c4ccccc4)nnc3c3ccccc23)cc1 |  | 250 nM | 170 nM | 380 nM | 480 nM | 

From ChEMBL document CHEMBL1149126, “3-phenyl-6-(2-pyridyl)methyloxy-1,2,4-triazolo[3,4-a]phthalazines and analogues: high-affinity gamma-aminobutyric acid-A benzodiazepine receptor ligands with alpha 2, alpha 3, and alpha 5-subtype binding selectivity over alpha 1” (J Med Chem, 2004)
